We go through 14 compounds from patent US20240208992A1, “MACROCYCLES AS CFTR MODULATORS” (Idorsia Pharmaceuticals Ltd, priority 2021, published 2024).

The structures appear in SMILES notation.

The experiment addresses human F508del-CFTR (Homo sapiens, UniProt P13569, DEL508-508). The experiment is described as follows: F508del-CFTR cell surface expression (corrector activity), DiscoveRx ß-galactosidase complementation chemiluminescence assay in recombinant U2OS cell line.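 As to all read-outs here: U2OS cells co-expressing ProLink-tagged F508del-CFTR and a membrane-anchored enzyme acceptor, where more surface CFTR restores β-galactosidase activity measured by chemiluminescence.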 As to conditions: U2OS cells, 16h compound incubation; for EC50: EC50, F508del-CFTR cell surface expression, geomean of several measurements; for Emax: U2OS, in relation to the Emax of the corrector lumacaftor (=100%), arithmetic mean.

Chain of human F508del-CFTR (P13569 with tags, fused parts or gaps DEL508-508): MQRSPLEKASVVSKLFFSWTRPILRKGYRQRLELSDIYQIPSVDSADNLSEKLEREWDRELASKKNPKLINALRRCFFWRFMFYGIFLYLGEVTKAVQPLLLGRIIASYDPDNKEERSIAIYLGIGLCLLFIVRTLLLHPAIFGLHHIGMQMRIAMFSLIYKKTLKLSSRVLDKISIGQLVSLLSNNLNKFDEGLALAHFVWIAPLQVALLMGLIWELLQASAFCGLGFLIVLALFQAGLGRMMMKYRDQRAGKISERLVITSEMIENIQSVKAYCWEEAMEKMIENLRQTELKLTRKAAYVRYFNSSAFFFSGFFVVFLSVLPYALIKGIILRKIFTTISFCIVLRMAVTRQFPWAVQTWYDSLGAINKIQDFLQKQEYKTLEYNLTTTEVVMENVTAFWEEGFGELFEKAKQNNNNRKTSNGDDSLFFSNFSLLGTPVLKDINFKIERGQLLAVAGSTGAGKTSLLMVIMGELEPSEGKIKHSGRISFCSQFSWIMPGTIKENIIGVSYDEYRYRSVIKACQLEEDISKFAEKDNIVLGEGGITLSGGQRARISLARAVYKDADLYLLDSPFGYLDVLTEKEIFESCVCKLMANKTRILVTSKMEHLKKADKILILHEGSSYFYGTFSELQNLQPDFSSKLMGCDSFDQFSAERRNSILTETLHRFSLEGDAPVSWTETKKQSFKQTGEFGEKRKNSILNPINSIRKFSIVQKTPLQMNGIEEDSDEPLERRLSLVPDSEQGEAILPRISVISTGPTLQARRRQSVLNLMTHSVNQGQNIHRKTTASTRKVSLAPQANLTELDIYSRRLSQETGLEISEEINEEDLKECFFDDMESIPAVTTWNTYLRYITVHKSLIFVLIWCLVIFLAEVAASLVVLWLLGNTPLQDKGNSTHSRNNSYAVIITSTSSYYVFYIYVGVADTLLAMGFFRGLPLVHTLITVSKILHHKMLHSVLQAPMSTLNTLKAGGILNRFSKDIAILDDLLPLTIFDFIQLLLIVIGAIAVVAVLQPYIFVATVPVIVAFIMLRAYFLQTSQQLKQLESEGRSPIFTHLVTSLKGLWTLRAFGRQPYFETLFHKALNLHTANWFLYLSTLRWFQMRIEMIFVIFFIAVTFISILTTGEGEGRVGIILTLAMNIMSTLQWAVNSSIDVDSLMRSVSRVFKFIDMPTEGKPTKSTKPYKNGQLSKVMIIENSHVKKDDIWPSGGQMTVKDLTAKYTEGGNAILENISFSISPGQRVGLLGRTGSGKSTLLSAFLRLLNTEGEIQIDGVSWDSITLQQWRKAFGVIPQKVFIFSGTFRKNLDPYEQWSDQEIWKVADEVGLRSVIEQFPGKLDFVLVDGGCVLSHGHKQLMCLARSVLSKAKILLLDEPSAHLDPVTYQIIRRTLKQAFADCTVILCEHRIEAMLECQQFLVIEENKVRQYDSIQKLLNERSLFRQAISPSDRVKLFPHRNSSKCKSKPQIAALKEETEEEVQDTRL
Procedure: The method measures the effect of over-night compound incubation on F508del-CFTR cell surface expression in a recombinant U2OS cell line (DiscoveRx, #93-0987C3). This cell line is engineered to co-express (i) human F508del-CFTR tagged with a Prolink (PK=short ß-galactosidase fragment) and (ii) the remainder of the ß-galactosidase enzyme (Enzyme Acceptor; EA) localized to the plasma membrane. Incubation with compounds that increase PK-tagged F508del-CFTR at the plasma membrane will lead to complementation of the EA fragment to form a functional ß-galactosidase enzyme which is quantified by a chemiluminescence reaction.
The cells are incubated for 5h in the incubator before the addition of 5 μl/well of compound dilution series (5× working stocks in full medium). […] The cells are co-incubated with the compounds for 16h in the incubator at 37° C., 5% CO2. The next day, the cell plates are incubated for 2h at RT in the dark. […] Concentration-response curves are generated using compound-intrinsic maximal efficacy as upper plateau, and from these CRCs compound-intrinsic EC50 values are determined.
The calculated EC50 values may fluctuate depending on the daily assay performance. […] EC50 values from several measurements are given as geomean values. The calculated Emax values may fluctuate depending on the daily assay performance. […] Emax values from several measurements are given as arithmetic mean values.

Usually EC50 stands for the concentration that produces a half-maximal response. The Emax is the greatest response seen or fitted, relative to the assay's reference. Take `COc1noc(CCNC(=O)[C@@H]2CC(=O)N(C)[C@@H](CC(C)C)C(=O)N(C)[C@H](CC(F)(F)F)C(=O)N[C@H](Cc3ccccc3)COc3ccc4ncc(F)cc4c3C(=O)N2)n1` [Example 941, (3S,7S,10R,13R)-13-benzyl-20-fluoro-7-isobutyl-N-(2-(3-methoxy-1,2,4-oxadiazol-5-yl)ethyl)-6,9-dimethyl-1,5,8,11-tetraoxo-10-(2,2,2-trifluoroethyl)-1,2,3,4,5,6,7,8,9,10,11,12,13,14-tetradecahydro-[1]oxa[4,7,10,14]tetraazacycloheptadecino[16,17-f]quinoline-3-carboxamide]: the EC50 stood at 135 nM and the Emax worked out at 459%.

`COc1noc(CCNC(=O)[C@@H]2CC(=O)N(C)[C@@H](CC(C)C)C(=O)N(C)[C@H](CC(F)(F)F)C(=O)N[C@H](Cc3ccccc3)COc3cc(C)nc(OC)c3C(=O)N2)n1` [Example 942, (3R,6R,9S,13S)-3-benzyl-9-isobutyl-16-methoxy-N-(2-(3-methoxy-1,2,4-oxadiazol-5-yl)ethyl)-7,10,18-trimethyl-5,8,11,15-tetraoxo-6-(2,2,2-trifluoroethyl)-2,3,4,5,6,7,8,9,10,11,12,13,14,15-tetradecahydropyrido[3,4-p][1]oxa[4,7,10,14]tetraazacycloheptadecine-13-carboxamide]: the concentration for a half-maximal effect (EC50) was 194 nM and the maximum response (Emax) is 460%.

Turning to `COc1nc(C)cc2c1C(=O)N[C@H](C(=O)NC[C@@H](O)c1nc(C3CC3)no1)CC(=O)N(C)[C@@H](CC(C)C)C(=O)N(C)[C@H](Cc1nc(C(F)(F)F)no1)C(=O)N[C@H](Cc1ccccc1)CO2` [Example 943, (3R,6R,9S,13S)-3-benzyl-N-((R)-2-(3-cyclopropyl-1,2,4-oxadiazol-5-yl)-2-hydroxyethyl)-9-isobutyl-16-methoxy-7,10,18-trimethyl-5,8,11,15-tetraoxo-6-((3-(trifluoromethyl)-1,2,4-oxadiazol-5-yl)methyl)-2,3,4,5,6,7,8,9,10,11,12,13,14,15-tetradecahydropyrido[3,4-p][1]oxa[4,7,10,14]tetraazacycloheptadecine-13-carboxamide], the concentration giving a half-maximal response (EC50) worked out at 240 nM and the maximum response (Emax) is 471%.

Turning to `CC(C)C[C@H]1C(=O)N(C)[C@H](Cc2nc(C(F)(F)F)no2)C(=O)N[C@H](Cc2ccccc2)COc2ccc3ncc(F)cc3c2C(=O)N[C@H](C(=O)NCCCOC(F)F)CC(=O)N1C` [Example 944, (3S,7S,10R,13R)-13-benzyl-N-(3-(difluoromethoxy)propyl)-20-fluoro-7-isobutyl-6,9-dimethyl-1,5,8,11-tetraoxo-10-((3-(trifluoromethyl)-1,2,4-oxadiazol-5-yl)methyl)-1,2,3,4,5,6,7,8,9,10,11,12,13,14-tetradecahydro-[1]oxa[4,7,10,14]tetraazacycloheptadecino[16,17-f]quinoline-3-carboxamide], the EC50 is 77 nM and the maximal effect (Emax) came to 336%.

Take `COc1noc(CCNC(=O)[C@@H]2CC(=O)N(C)[C@@H](CC(C)C)C(=O)N(C)[C@H](Cc3nc(C(F)(F)F)no3)C(=O)N[C@H](Cc3ccccc3)COc3cc(C)nc(OC)c3C(=O)N2)c1F` [Example 945, (3R,6R,9S,13S)-3-benzyl-N-(2-(4-fluoro-3-methoxyisoxazol-5-yl)ethyl)-9-isobutyl-16-methoxy-7,10,18-trimethyl-5,8,11,15-tetraoxo-6-((3-(trifluoromethyl)-1,2,4-oxadiazol-5-yl)methyl)-2,3,4,5,6,7,8,9,10,11,12,13,14,15-tetradecahydropyrido[3,4-p][1]oxa[4,7,10,14]tetraazacycloheptadecine-13-carboxamide]: the EC50 worked out at 33 nM and the maximal effect (Emax) was 502%.

Regarding `Cc1cc(CCNC(=O)[C@@H]2CC(=O)N(C)[C@@H](CC(C)C)C(=O)N(C)[C@H](CC(F)F)C(=O)N[C@H](Cc3ccccc3)COc3ccc4ncc(F)cc4c3C(=O)N2)on1` [Example 946, (3S,7S,10R,13R)-13-benzyl-10-(2,2-difluoroethyl)-20-fluoro-7-isobutyl-6,9-dimethyl-N-(2-(3-methylisoxazol-5-yl)ethyl)-1,5,8,11-tetraoxo-1,2,3,4,5,6,7,8,9,10,11,12,13,14-tetradecahydro-[1]oxa[4,7,10,14]tetraazacycloheptadecino[16,17-f]quinoline-3-carboxamide], the EC50 amounted to 447 nM and the Emax was determined as 404%.

For `COc1noc(CCNC(=O)[C@@H]2CC(=O)N(C)[C@@H](CC(C)C)C(=O)N(C)[C@H](CC(F)F)C(=O)N[C@H](Cc3ccccc3)COc3ccc4ncc(F)cc4c3C(=O)N2)n1` [Example 947, (3S,7S,10R,13R)-13-benzyl-10-(2,2-difluoroethyl)-20-fluoro-7-isobutyl-N-(2-(3-methoxy-1,2,4-oxadiazol-5-yl)ethyl)-6,9-dimethyl-1,5,8,11-tetraoxo-1,2,3,4,5,6,7,8,9,10,11,12,13,14-tetradecahydro-[1]oxa[4,7,10,14]tetraazacycloheptadecino[16,17-f]quinoline-3-carboxamide], the EC50 worked out at 281 nM and the Emax stood at 458%.

As to `COc1cc(CCNC(=O)[C@@H]2CC(=O)N(C)[C@@H](CC(C)C)C(=O)N(C)[C@H](Cc3nc(C(F)(F)F)no3)C(=O)N[C@H](Cc3ccccc3)COc3ccnc(OC)c3C(=O)N2)on1` [Example 948, (3R,6R,9S,13S)-3-benzyl-9-isobutyl-16-methoxy-N-(2-(3-methoxyisoxazol-5-yl)ethyl)-7,10-dimethyl-5,8,11,15-tetraoxo-6-((3-(trifluoromethyl)-1,2,4-oxadiazol-5-yl)methyl)-2,3,4,5,6,7,8,9,10,11,12,13,14,15-tetradecahydropyrido[3,4-p][1]oxa[4,7,10,14]tetraazacycloheptadecine-13-carboxamide], the concentration for a half-maximal effect (EC50) was 61 nM and the Emax was determined as 501%.

Take `COc1noc(CCNC(=O)[C@@H]2CC(=O)N(C)[C@@H](CC(C)C)C(=O)N(C)[C@H](Cc3nc(C(F)(F)F)no3)C(=O)N[C@H](Cc3ccccc3)COc3ccnc(OC)c3C(=O)N2)n1` [Example 949, (3R,6R,9S,13S)-3-benzyl-9-isobutyl-16-methoxy-N-(2-(3-methoxy-1,2,4-oxadiazol-5-yl)ethyl)-7,10-dimethyl-5,8,11,15-tetraoxo-6-((3-(trifluoromethyl)-1,2,4-oxadiazol-5-yl)methyl)-2,3,4,5,6,7,8,9,10,11,12,13,14,15-tetradecahydropyrido[3,4-p][1]oxa[4,7,10,14]tetraazacycloheptadecine-13-carboxamide]: the EC50 turned out to be 113 nM and the Emax came to 518%.

As for `Cc1cc2c3c(ccc2cn1)OC[C@@H](Cc1ccccc1)NC(=O)[C@@H](CC(F)(F)F)N(C)C(=O)[C@H](CC(C)C)N(C)C(=O)C[C@@H](C(=O)NCCc1noc(C2CC2)n1)NC3=O` [Example 950, (3S,7S,10R,13R)-13-benzyl-N-(2-(5-cyclopropyl-1,2,4-oxadiazol-3-yl)ethyl)-7-isobutyl-6,9,20-trimethyl-1,5,8,11-tetraoxo-10-(2,2,2-trifluoroethyl)-1,2,3,4,5,6,7,8,9,10,11,12,13,14-tetradecahydro-[1]oxa[4,7,10,14]tetraazacycloheptadecino[16,17-f]isoquinoline-3-carboxamide], the EC50 came to 201 nM and the Emax stood at 464%.

Regarding `Cc1cc2c3c(ccc2cn1)OC[C@@H](Cc1ccccc1)NC(=O)[C@@H](CC(F)(F)F)N(C)C(=O)[C@H](CC(C)C)N(C)C(=O)C[C@@H](C(=O)NCCc1nc(C2CC2)no1)NC3=O` [Example 951, (3S,7S,10R,13R)-13-benzyl-N-(2-(3-cyclopropyl-1,2,4-oxadiazol-5-yl)ethyl)-7-isobutyl-6,9,20-trimethyl-1,5,8,11-tetraoxo-10-(2,2,2-trifluoroethyl)-1,2,3,4,5,6,7,8,9,10,11,12,13,14-tetradecahydro-[1]oxa[4,7,10,14]tetraazacycloheptadecino[16,17-f]isoquinoline-3-carboxamide], the EC50 turned out to be 165 nM and the Emax was determined as 405%.

With `Cc1cc2c3c(ccc2cn1)OC[C@@H](Cc1ccccc1)NC(=O)C1(CC(F)(F)C1)N(C)C(=O)[C@H](CC(C)C)N(C)C(=O)C[C@@H](C(=O)NCCc1nc(C2CC2)no1)NC3=O` [Example 952, (3′S,7′S,13′R)-13′-benzyl-N-(2-(3-cyclopropyl-1,2,4-oxadiazol-5-yl)ethyl)-3,3-difluoro-7′-isobutyl-6′,9′,20′-trimethyl-1′,5′,8′,11′-tetraoxo-2′,3′,4′,5′,6′,7′,8′,9′,11′,12′,13′,14′-dodecahydro-1′H-spiro[cyclobutane-1,10′-[1]oxa[4,7,10,14]tetraazacycloheptadecino[16,17-f]isoquinoline]-3′-carboxamide], the EC50 was determined as 339 nM and the Emax is 438%.

For `COc1cc(CCNC(=O)[C@@H]2CC(=O)N(C)[C@@H](CC(C)C)C(=O)N(C)C3(CC(F)(F)C3)C(=O)N[C@H](Cc3ccccc3)COc3ccc4cnc(C)cc4c3C(=O)N2)on1` [Example 953, (3′S,7′S,13′R)-13′-benzyl-3,3-difluoro-7′-isobutyl-N-(2-(3-methoxyisoxazol-5-yl)ethyl)-6′,9′,20′-trimethyl-1′,5′,8′,11′-tetraoxo-2′,3′,4′,5′,6′,7′,8′,9′,11′,12′,13′,14′-dodecahydro-1′H-spiro[cyclobutane-1,10′-[1]oxa[4,7,10,14]tetraazacycloheptadecino[16,17-f]isoquinoline]-3′-carboxamide], the EC50 came to 268 nM and the Emax was found to be 394%.

For the compound `COc1noc(CCNC(=O)[C@@H]2CC(=O)N(C)[C@@H](CC(C)C)C(=O)N(C)C3(CC(F)(F)C3)C(=O)N[C@H](Cc3ccccc3)COc3ccc4cnc(C)cc4c3C(=O)N2)n1` [Example 954, (3′S,7′S,13′R)-13′-benzyl-3,3-difluoro-7′-isobutyl-N-(2-(3-methoxy-1,2,4-oxadiazol-5-yl)ethyl)-6′,9′,20′-trimethyl-1′,5′,8′,11′-tetraoxo-2′,3′,4′,5′,6′,7′,8′,9′,11′,12′,13′,14′-dodecahydro-1′H-spiro[cyclobutane-1,10′-[1]oxa[4,7,10,14]tetraazacycloheptadecino[16,17-f]isoquinoline]-3′-carboxamide], the concentration for a half-maximal effect (EC50) worked out at 382 nM and the Emax was 383%.
